Counter-ions that a name gives are not always drawn.
Key:
[1] = biological target: T1, human recombinant GABAAR containing α5β3γ2 subunits (benzodiazepine site) (Homo sapiens, UniProt P18507+P31644); test: In vitro radioligand binding assay (α5-GABAAR Ki); conditions: inhibition of [3H]Ro15-1788 binding, membranes of L(tk−) cells expressing human α5β3γ2; read-out: α5-GABAAR Ki
T1 construct: expressed in transfected cells; host or cells: mouse L(tk−) cells, dexamethasone-inducible vector pMSGneo
Outline: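 Displacement of 4 nM [^3H]flumazenil from the benzodiazepine site, read by filtration and scintillation, gave IC50, converted to Ki (Cheng-Prusoff, saturation-derived Kd). Receptor: human α5β3γ2 membranes from L(tk^−) cells, 50 μg protein/well; 1 h, 4° C; TP003 1 μM defined nonspecific binding.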

[2] = biological target: T2, human α5β3γ2 GABAARs in mouse L(tk−) cells (Homo sapiens, UniProt P18507+P31644); test: In vitro electrophysiological recording assay (α5-GABAAR relative efficacy), QPatch; assay type: cell-based; conditions: GABA EC10-20
T2 construct: expressed in transfected cells; host or cells: mouse L(tk−) cells, dexamethasone-inducible vector pMSGneo
T2 sequence (P31644 32-462): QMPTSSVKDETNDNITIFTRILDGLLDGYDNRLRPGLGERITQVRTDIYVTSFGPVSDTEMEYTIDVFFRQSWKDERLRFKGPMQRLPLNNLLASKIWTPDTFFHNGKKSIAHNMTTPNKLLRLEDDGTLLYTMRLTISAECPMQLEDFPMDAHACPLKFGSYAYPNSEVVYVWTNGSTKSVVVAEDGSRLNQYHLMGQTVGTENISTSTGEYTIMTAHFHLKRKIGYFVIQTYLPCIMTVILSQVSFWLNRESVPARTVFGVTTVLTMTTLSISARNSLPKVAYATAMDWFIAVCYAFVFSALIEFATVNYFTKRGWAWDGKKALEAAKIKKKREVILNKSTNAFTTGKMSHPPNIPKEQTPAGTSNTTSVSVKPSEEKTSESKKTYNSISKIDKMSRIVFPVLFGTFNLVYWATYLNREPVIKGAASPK
T2 sequence (P28472 26-473 partner): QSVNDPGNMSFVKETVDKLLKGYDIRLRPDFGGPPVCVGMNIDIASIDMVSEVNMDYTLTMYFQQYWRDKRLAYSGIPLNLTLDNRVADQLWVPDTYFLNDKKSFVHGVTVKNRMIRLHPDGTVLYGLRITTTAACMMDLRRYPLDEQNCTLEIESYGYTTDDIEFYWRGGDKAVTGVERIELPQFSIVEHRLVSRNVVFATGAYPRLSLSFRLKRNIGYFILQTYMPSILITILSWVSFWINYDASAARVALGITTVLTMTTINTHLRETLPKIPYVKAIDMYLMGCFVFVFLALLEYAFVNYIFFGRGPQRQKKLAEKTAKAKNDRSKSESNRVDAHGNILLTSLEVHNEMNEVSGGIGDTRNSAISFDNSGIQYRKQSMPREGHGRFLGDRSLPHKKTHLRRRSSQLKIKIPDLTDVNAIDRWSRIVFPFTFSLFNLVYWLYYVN
T2 sequence (P18507 40-475): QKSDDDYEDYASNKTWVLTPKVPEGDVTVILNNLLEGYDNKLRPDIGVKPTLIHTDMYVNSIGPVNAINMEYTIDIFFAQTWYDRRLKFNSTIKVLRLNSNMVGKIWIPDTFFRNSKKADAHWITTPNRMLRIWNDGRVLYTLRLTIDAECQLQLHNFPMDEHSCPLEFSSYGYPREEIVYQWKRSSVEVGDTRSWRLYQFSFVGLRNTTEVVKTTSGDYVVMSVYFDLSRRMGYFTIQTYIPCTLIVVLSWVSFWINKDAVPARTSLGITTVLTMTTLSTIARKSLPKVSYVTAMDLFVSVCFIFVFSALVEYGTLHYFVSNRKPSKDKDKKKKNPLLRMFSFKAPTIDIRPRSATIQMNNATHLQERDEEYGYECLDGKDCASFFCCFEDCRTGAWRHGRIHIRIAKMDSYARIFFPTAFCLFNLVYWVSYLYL
Outline: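 Whole-cell QPatch recordings at 20-22° C, −65 mV holding, in dexamethasone-induced (1 μM, 24 h) L(tk−) cells. Compound pre-applied ≥1 min, then co-applied with GABA EC10-20; percentage change in leak-corrected peak current, taken at ≥100× Ki, normalised to DMCM efficacy; 0.1% DMSO final.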

[3] = biological target: T3, human α5β3γ2L GABAA receptors in HEK293 cells (Homo sapiens, UniProt P18507+P31644); test: In vitro electrophysiological recording assay (α5-GABAAR relative efficacy), SyncroPatch; assay type: cell-based; conditions: Conc 0.1 μM; GABA EC10-20
T3 construct: expressed in transfected cells
T3 sequence (P31644 32-462): as the sequence (P31644 32-462) above
T3 sequence (P28472 26-473 partner): as the sequence (P28472 26-473 partner) above
T3 sequence (P18507 40-475): as the sequence (P18507 40-475) above
Excerpt: Mouse L(tk^−) cells stably expressing human α1β3γ2, α2β3γ2, α3β3γ2, α5β3γ2 GABAARs generated by transfection of the individual subunits in the dexamethasone-inducible expression vector pMSGneo in mouse L(tk^−) cells (Hadingham et al., 1993, Mol. Pharmacol. 43:970-975 and 1993, Mol. Pharmacol. 44:1211-1218) were used for binding and functional assays. For certain compounds, HEK293 cells stable expressing the human α1β3γ2L, α2β3γ2L, α3β3γ2L and α5β3γ2L GABAA receptors were used to evaluate their functional effects in a SyncroPatch electrophysiology assay.
The efficacy of modulators was evaluated using either the automated patch-clamp platform QPatch16 (Sophion, Copenhagen, Denmark) or the SyncroPatch 384i (Nanion Technologies, Germany). Cells were harvested from flasks by enzymatic dissociation and re-suspended in serum-free medium.
For the Syncropatch recordings, a stacked addition protocol was used, in which GABA was rapidly applied and then washed off from the cell. All experiments were carried out at room temperature (20-22° C.) using a standard whole cell procedure. The currents recorded were acquired at 2 kHz and filtered using a Bessel filter. Whole-cell currents were measured at a holding potential of −80 mV.
For Syncropatch recordings, the extracellular recording solution contained: 140 mM NaCl, 4 mM KCl, 2 mM CaCl2), 1 mM MgCl2, 10 mM HEPES, 5 mM glucose (pH 7.4 and osmolarity of c. 300-310 mOsm/L). The intracellular recording solution contained: 90 mM KCl, 50 mM KF, 1.5 mM MgCl2, 11.1 mM EGTA and 10 mM HEPES (pH 7.2 and osmolarity of c. 300 mOsm/L). 2 mM of NaATP was added to the intracellular solution on the day of testing.
The effects of modulators were evaluated in the presence of a submaximal GABA concentration, giving typically 10-20% activation (GABA EC10-20) of the response elicited by a saturating GABA concentration. For QPatch recordings, to check and ensure baseline current stability before compound addition, five consecutive applications of GABA EC10-20 alone (each application with a 2 s duration, separated by minimum 1 min wash off periods) were performed before compound addition. The test compound was applied using the pipetting system of the QPatch system 1 min at least prior to co-application with GABA EC10-20. For SyncroPatch recordings, GABA EC20 alone was applied three times (1 s long applications, with wash steps in-between) before compound addition. This was followed by a 1-2 min pre-incubation with the test compound and then re-application of GABA EC10-20 in the presence of the compound. Finally, following a further wash step, a saturating concentration of GABA was applied, allowing the accurate evaluation for each cell of the percentage baseline activation elicited by the submaximal GABA applied.
The compounds were first dissolved in DMSO as a 10 mM stock and then further diluted to the testing concentrations so that the final DMSO concentration in the extracellular recording solution was kept constant at 0.1% for the QPatch recordings, or 0.2% for the SyncroPatch recordings.
The % efficacy of modulators was determined from the GABA elicited currents recorded in the presence and absence of the test compound, using the formula:
[((compound peak current−leak)−(GABA peak current−leak))/(GABA peak current−leak)]*100,
where ‘leak’ is the leak baseline current at −65 mV, ‘compound peak current’ is the current elicited by co-application of compound and GABA, and ‘GABA peak current’ is the current elicited by GABA alone during the 5th GABA application. The results were presented as ‘relative efficacy’ for each compound generally at a concentration equal or higher than 100 times their determined Ki. The relative efficacy of a compound was calculated by normalising its efficacy to the efficacy of methyl-6,7-dimethoxy-4-ethyl-beta-carboline-3-carboxylate (DMCM) that was separately determined produced an attenuation of GABA-induced currents of −57±4%, n=5.

T1 sequence (P31644 32-462): as the sequence (P31644 32-462) above
T1 sequence (P28472 26-473 partner): as the sequence (P28472 26-473 partner) above
T1 sequence (P18507 40-475): as the sequence (P18507 40-475) above

SMILES | Ki [1] [nM] | α5-GABAAR Relative Efficacy (to DMCM), SyncroPatch [3] | α5-GABAAR Relative Efficacy (to DMCM), Qpatch ([2]; Conc 3 μM) | α5-GABAAR Relative Efficacy (to DMCM), Qpatch ([2]; Conc 0.1 μM) | α5-GABAAR Relative Efficacy (to DMCM), Qpatch ([2]; Conc 1 μM) | α5-GABAAR Relative Efficacy (to DMCM), Qpatch ([2]; Conc 0.3 μM)
COc1nc(-c2cnc(CN)nc2)ccc1NC(=O)c1c(-c2ccccc2)noc1C.Cl [Example 126, N-[6-[2-(Aminomethyl)pyrimidin-5-yl]-2-methoxy-3-pyridyl]-5-methyl-3-phenyl-isoxazole-4-carboxamide hydrochloride] | 1.1 | −0.55 | – | – | – | −0.68
COc1nc(-n2ccnc2)ccc1NC(=O)c1c(-c2ccc(F)cc2)noc1C [Example 141, 3-(4-Fluorophenyl)-N-(6-imidazol-1-yl-2-methoxy-3-pyridyl)-5-methyl-isoxazole-4-carboxamide] | 1.9 | −1.13 | – | – | – | −0.93
COc1nc(-c2cnc(CN)nc2)cnc1NC(=O)c1c(-c2ccccc2)noc1C.Cl [Example 156, N-[5-[2-(Aminomethyl)pyrimidin-5-yl]-3-methoxy-pyrazin-2-yl]-5-methyl-3-phenyl-isoxazole-4-carboxamide hydrochloride] | 2.7 | −0.65 | – | – | – | −0.91
COc1nc(-c2ccn3nc(N)nc3c2)ccc1NC(=O)c1c(C)nnn1-c1ccccc1 [Example 159, N-(6-(2-Amino-[1,2,4]triazolo[1,5-a]pyridin-7-yl)-2-methoxypyridin-3-yl)-4-methyl-1-phenyl-1H-1,2,3-triazole-5-carboxamide] | 9.2 | −0.81 | – | – | −0.82 | –
COc1nc(-n2cnc3c2CNCC3)ccc1NC(=O)c1c(-c2ccccc2)noc1C.Cl.Cl [Example 179, N-[2-Methoxy-6-(4,5,6,7-tetrahydroimidazo[4,5-c]pyridin-3-yl)-3-pyridyl]-5-methyl-3-phenyl-isoxazole-4-carboxamide dihydrochloride] | 3 | −0.38 | – | – | – | −0.65
COc1nc(-c2cnc(CN)nc2)ccc1NC(=O)c1c(-c2ccccc2)nnn1C.Cl [Example 180, N-(6-(2-(Aminomethyl)pyrimidin-5-yl)-2-methoxypyridin-3-yl)-1-methyl-4-phenyl-1H-1,2,3-triazole-5-carboxamide hydrochloride] | 3.9 | −0.48 | – | – | −0.63 | –
COc1nc(-c2cnc(CN)nc2)ccc1NC(=O)c1c(-c2ccc(F)cc2)noc1C.Cl [Example 185, N-[6-[2-(Aminomethyl)pyrimidin-5-yl]-2-methoxy-3-pyridyl]-3-(4-fluorophenyl)-5-methyl-isoxazole-4-carboxamide hydrochloride] | 0.5 | −1.23 | – | −0.79 | – | –
COc1nc(-c2ccc(CN)nc2)ccc1NC(=O)c1c(-c2ccccc2)noc1C.Cl [Example 199, N-[6-[6-(Aminomethyl)-3-pyridyl]-2-methoxy-3-pyridyl]-5-methyl-3-phenyl-isoxazole-4-carboxamide hydrochloride] | 1.6 | −0.93 | – | – | – | −0.82

Second part, led by results:

Ki [1] [nM] | α5-GABAAR Relative Efficacy (to DMCM), SyncroPatch [3] | α5-GABAAR Relative Efficacy (to DMCM), Qpatch ([2]; Conc 3 μM) | α5-GABAAR Relative Efficacy (to DMCM), Qpatch ([2]; Conc 0.1 μM) | α5-GABAAR Relative Efficacy (to DMCM), Qpatch ([2]; Conc 1 μM) | SMILES | α5-GABAAR Relative Efficacy (to DMCM), Qpatch ([2]; Conc 0.3 μM)
21.8 | −0.57 | −0.72 | – | – | COc1nc(-c2ccc(N)nn2)ccc1NC(=O)c1c(-c2ccccc2)noc1C [Example 127, N-[6-(6-Aminopyridazin-3-yl)-2-methoxy-3-pyridyl]-5-methyl-3-phenyl-isoxazole-4-carboxamide] | –
0.8 | −0.72 | – | −0.77 | – | COc1nc(-c2cnc(C(N)=O)nc2)ccc1NC(=O)c1c(-c2ccccc2)noc1C [Example 129, N-[6-(2-Carbamoylpyrimidin-5-yl)-2-methoxy-3-pyridyl]-5-methyl-3-phenyl-isoxazole-4-carboxamide] | –
3.8 | −0.69 | – | – | −0.80 | COc1nc(-c2cnc3n2CCN(C)C3)ccc1NC(=O)c1c(-c2ccccc2)noc1C [Example 137, N-(2-Methoxy-6-(7-methyl-5,6,7,8-tetrahydroimidazol[1,2-a]pyrazin-3-yl)pyridin-3-yl)-5-methyl-3-phenylisoxazole-4-carboxamide] | –
0.4 | −0.72 | – | −0.80 | – | COc1nc(-c2cnc3n2CCN(C(C)=O)C3)ccc1NC(=O)c1c(-c2ccccc2)noc1C [Example 143, N-(6-(7-Acetyl-5,6,7,8-tetrahydroimidazo[1,2-a]pyrazin-3-yl)-2-methoxypyridin-3-yl)-5-methyl-3-phenylisoxazole-4-carboxamide] | –
1.4 | −1.05 | – | – | – | COc1nc(-c2cnc(CN(C)C)nc2)cnc1NC(=O)c1c(-c2ccccc2)noc1C [Example 144, N-[5-[2-[(Dimethylamino)methyl]pyrimidin-5-yl]-3-methoxy-pyrazin-2-yl]-5-methyl-3-phenyl-isoxazole-4-carboxamide] | −0.95
0.7 | −0.72 | – | −0.70 | – | COc1nc(-c2cnc(OC3CNC3)nc2)ccc1NC(=O)c1c(-c2ccccc2)noc1C [Example 189, N-[6-[2-(Azetidin-3-yloxy)pyrimidin-5-yl]-2-methoxy-3-pyridyl]-5-methyl-3-phenyl-isoxazole-4-carboxamide] | –
1.1 | −0.72 | – | −0.59 | – | CNCc1ccc(-c2ccc(NC(=O)c3c(-c4ccccc4)noc3C)c(OC)n2)cn1 [Example 190, N-[2-Methoxy-6-[6-(methylaminomethyl)-3-pyridyl]-3-pyridyl]-5-methyl-3-phenyl-isoxazole-4-carboxamide] | –
23.5 | −0.68 | −0.71 | – | – | COc1nc(-c2nnc3n2CCNC3)ccc1NC(=O)c1c(-c2ccccc2)noc1C [Example 196, N-(2-Methoxy-6-(5,6,7,8-tetrahydro-[1,2,4]triazolo[4,3-a]pyrazin-3-yl)pyridin-3-yl)-5-methyl-3-phenylisoxazole-4-carboxamide dihydrochloride] | –
